Here are results for 5 compounds from patent publication US8574831B2, “Mutational profiles in HIV-1 reverse transcriptase correlated with phenotypic drug resistance” (Virco N.V., priority 2000, dated 2013).

Experiment [1] relates to HIV-1 HXB2-D variants with site-directed RT mutations. Put plainly: MT-4 cell CPE protection assay, HIV-1 variants constructed by site-directed mutagenesis (Example 2). In kind it is cell-based. The procedure:
Mutations in the RT coding region were created by site-directed mutagenesis of a wild-type HXB2-D EcoRl-Pstl restriction enzyme fragment, encompassing the HIV-1 pol gene and cloned into pGEM3 (Promega). Single and multiple nucleotide changes were introduced into RT using the EXSITE™ mutagenesis kit (Strategene). All mutant clones were verified by DNA sequence analysis of the entire RT. PCR fragments were prepared from the mutated clones and the altered RT coding regions were transferred into the HIV-1 HXB2-D genetic background by homologous recombination as described above. The susceptibility of these recombinant viruses to nucleoside analogues was subsequently determined by the MT-4 cell CPE protection assay. Id.

For experiment [2], the system named is HIV with mutations in the reverse transcriptase gene sequence. Put plainly: Phenotypic fold resistance to reverse transcriptase inhibitors, RT mutations at positions 101, 103, 181, 190 (Examples 4-7). It is filed as cell-based, HIV-1. The procedure:
As is the case with the genotyping assays, the recombinant virus assay starts with the amplification of viral target sequences by means of PCR. The amplicons are incorporated into a proviral laboratory clone with sequences homologous to those present in the amplicon deleted. This generates a stock of chimeric viruses. The viruses are tested for their ability to grow in the presence of different concentrations of drugs. Results are obtained by calculating IC50 values for each inhibitor and by reporting the results as IC50 values, expressed in μM concentrations, or by computing the ratio of the IC50 values found for the chimeric virus to the IC50 values found for a wild type susceptible laboratory virus tested in parallel. In the latter case, resistance is expressed as “fold-resistance” compared to a wild-type susceptible HIV-1 strain. In order to meet the need for high-volume testing and a short turn-around time for an individual test, the latest generation of phenotyping assays has undergone further modifications. The use of reporter gene systems for susceptibility testing allows the implementation of laboratory automation and standardization. See Pauwels, et al., J. Virol. Methods 20, 309-321 (1998); Paulous, S., et al., International Workshop on HIV Drug Resistance, Treatment Strategies and Eradication, St. Petersburg, Fla., USA. Abstr. 46 (1997); and Deeks, S. G., et al., 2nd International Workshop on HIV Drug Resistance and Treatment Strategies, Lake Maggiore, Italy. Abstr. 53 (1998).
The methods of monitoring HIV-1 drug resistance, may also be used in combination with phenotypic drug resistance testing of viral isolates. For example, in one embodiment, a phenotypic test is utilized that is based upon the construction of chimeric HIV-1 strains composed of the protease (PR) and reverse transcriptase (RT) gene sequences which are isolated and amplified from the patient viral RNA. These strains may subsequently be recombined inside CD4+ T cells with a standard laboratory isogenic (HXB2) HIV-1 DNA construct from which the PR/RT gene sequences were deleted. The recombinant strains may then be grown in the presence of the above-mentioned antiviral drugs and the susceptibility of the viral isolates may be expressed as fold-change value of the IC50 of the drug on the patient isolates over the IC50 of the drug on a wild-type laboratory reference strain.
Overview of the mean fold increase in resistance and the effect of the 101 mutations in the HIV reverse transcriptase gene sequence. The fold increase in resistance is calculated from the increase in the mean IC50 of the drug relative to the mean IC50 of the same drug for a wild-type reference laboratory HIV-1 strain. The effect of the mutations was investigated on Nevirapine, Delavirdine and Efavirenz.
Overview of the mean fold increase in resistance and the effect of the 103 mutations in the HIV reverse transcriptase gene sequence. The fold increase in resistance is calculated from the increase in the mean IC50 of the drug relative to the mean IC50 of the same drug for a wild-type reference laboratory HIV-1 strain.
Overview of the mean fold increase in resistance and the effect of the 181 mutations in the HIV reverse transcriptase gene sequence. The fold increase in resistance is calculated from the increase in the mean IC50 of the drug relative to the mean IC50 of the same drug for a wild-type reference laboratory HIV-1 strain.
Overview of the mean fold increase in resistance and the effect of the 190 mutations in the HIV reverse transcriptase gene sequence. The fold increase in resistance is calculated from the increase in the mean IC50 of the drug relative to the mean IC50 of the same drug for a wild-type reference laboratory HIV-1 strain.

For the compound `O=c1[nH]cnc2c1ncn2[C@H]1CC[C@@H](CO)O1` [ddl, didanosine], the “resistance” value in experiment [1] (T69A or V75M in a background of AZT mutations) is “little or no resistance”.
`CC(C)Nc1cccnc1N1CCN(C(=O)c2cc3cc(NS(C)(=O)=O)ccc3[nH]2)CC1` [Delavirdine, delavirdine]: the “fold increase in resistance compared to a laboratory reference strain (WT)” value is given as 7.7 fold in experiment [2] (RT genotype 101E); 45.5 fold in experiment [2] (RT genotype 101H); 162.4 fold in experiment [2] (RT genotype 101P); 1.2 fold in experiment [2] (RT genotype 101Q); 82.5 fold in experiment [2] (RT genotype 181C); 81.7 fold in experiment [2] (RT genotype 181I). Further, the “fold increase in resistance compared to a laboratory reference strain (WT)” value was 147.9 fold in experiment [2] (RT genotype 181S); 2.3 fold in experiment [2] (RT genotype 190A); 131.1 fold in experiment [2] (RT genotype 190E); 34.0 fold in experiment [2] (RT genotype 190Q); 1.9 fold in experiment [2] (RT genotype 190S); 1.8 fold in experiment [2] (RT genotype WT (Table 5)). In addition, the “fold increase in resistance compared to a laboratory reference strain (WT)” value in experiment [2] (RT genotype WT (Table 7)) and in experiment [2] (RT genotype WT (Table 8)) was 1.8 fold each time. Besides, the “mean fold increase in resistance compared to a laboratory reference strain (WT)” value (shortened to “mean fold increase in resistance”) in experiment [2] (RT genotype 103H) came out at 191.6 fold; in experiment [2] (RT genotype 103N), 176.1 fold; in experiment [2] (RT genotype 103R), 1.6 fold; in experiment [2] (RT genotype 103S) it was 18.3 fold; in experiment [2] (RT genotype 103T), 84.5 fold; in experiment [2] (RT genotype WT (Table 6)) it was 1.8 fold.
`Cc1ccnc2c1NC(=O)c1cccnc1N2C1CC1` [Nevirapine, nevirapine]: the “fold increase in resistance compared to a laboratory reference strain (WT)” value in experiment [2] (RT genotype 101E) was found to be 4.9 fold; in experiment [2] (RT genotype 101H) it was 24.0 fold; in experiment [2] (RT genotype 101P) it was 53.4 fold; in experiment [2] (RT genotype 101Q) it was 1.9 fold; in experiment [2] (RT genotype 181C), 56.0 fold; in experiment [2] (RT genotype 181I), 63.8 fold. In addition, the “fold increase in resistance compared to a laboratory reference strain (WT)” value turned out to be 82.8 fold in experiment [2] (RT genotype 181S); 60.7 fold in experiment [2] (RT genotype 190A); 40.0 fold in experiment [2] (RT genotype 190E); 52.7 fold in experiment [2] (RT genotype 190Q); 75.9 fold in experiment [2] (RT genotype 190S); 1.3 fold in experiment [2] (RT genotype WT (Table 5)). For the same compound, the “fold increase in resistance compared to a laboratory reference strain (WT)” value in experiment [2] (RT genotype WT (Table 7)) and in experiment [2] (RT genotype WT (Table 8)) was 1.3 fold in each case. Besides, the “mean fold increase in resistance” value in experiment [2] (RT genotype 103H) amounted to 69.4 fold; in experiment [2] (RT genotype 103N), 48.1 fold; in experiment [2] (RT genotype 103R), 1.1 fold; in experiment [2] (RT genotype 103S) it was 45.4 fold; in experiment [2] (RT genotype 103T), 43.7 fold; in experiment [2] (RT genotype WT (Table 6)) it was 1.3 fold.
In the case of `Nc1nc(NC2CC2)c2ncn([C@H]3C=C[C@@H](CO)C3)c2n1` [abacavir, 4-[(2-amino-6-cyclopropyl-amino)-9H-purin-9-yl]-2-cyclopentene-1-methanol], in experiment [1] (69S-[S-S] insert plus AZT resistance mutations (210W and 215Y)), the “susceptibility” value is recorded as “decreased susceptibility”.
On to `O=C1Nc2ccc(Cl)cc2[C@@](C#CC2CC2)(C(F)(F)F)O1` [Efavirenz, efavirenz], for which the “fold increase in resistance compared to a laboratory reference strain (WT)” value in experiment [2] (RT genotype 101E) was 2.4 fold; in experiment [2] (RT genotype 101H) it was 3.5 fold; in experiment [2] (RT genotype 101P) it was 84.2 fold; in experiment [2] (RT genotype 101Q), 0.9 fold; in experiment [2] (RT genotype 181C), 2.0 fold; in experiment [2] (RT genotype 181I), 2.0 fold. Besides, the “fold increase in resistance compared to a laboratory reference strain (WT)” value was 8.7 fold in experiment [2] (RT genotype 181S); 24.8 fold in experiment [2] (RT genotype 190A); 385.3 fold in experiment [2] (RT genotype 190E); 401.1 fold in experiment [2] (RT genotype 190Q); 483.6 fold in experiment [2] (RT genotype 190S); 0.9 fold in experiment [2] (RT genotype WT (Table 5)). Further, the “fold increase in resistance compared to a laboratory reference strain (WT)” value in experiment [2] (RT genotype WT (Table 7)) and in experiment [2] (RT genotype WT (Table 8)) was 0.9 fold throughout. For the same compound, the “mean fold increase in resistance” value in experiment [2] (RT genotype 103H) is given as 52.7 fold; in experiment [2] (RT genotype 103N), 486.8 fold; in experiment [2] (RT genotype 103R), 0.6 fold; in experiment [2] (RT genotype 103S) it was 8.4 fold; in experiment [2] (RT genotype 103T), 2.8 fold; in experiment [2] (RT genotype WT (Table 6)), 0.9 fold.
